Laboratory results as given in patent US5756510A, “Benzamide analogs useful as PARP (ADP-ribosyltransferase, ADPRT) DNA repair enzyme inhibitors” (Newcastle University Ventures Limited, priority 1994, dated 1998).
Read-outs that look alike come from different tables or passages of the source.

What was measured:
PARP = molecular target: T1, PARP (Mus musculus, UniProt P11103); assay: PARP inhibition assay ([32P]-NAD incorporation into TCA-precipitated poly(ADP-ribose) in permeabilised L1210 cells, oligonucleotide activated); assay type: biochemical, L1210 murine leukaemia cells
T1 construct: endogenous in cells; host or cells: L1210 murine leukaemia cells, permeabilised by hypotonic buffer and cold shock
T1 sequence (P11103 whole entry): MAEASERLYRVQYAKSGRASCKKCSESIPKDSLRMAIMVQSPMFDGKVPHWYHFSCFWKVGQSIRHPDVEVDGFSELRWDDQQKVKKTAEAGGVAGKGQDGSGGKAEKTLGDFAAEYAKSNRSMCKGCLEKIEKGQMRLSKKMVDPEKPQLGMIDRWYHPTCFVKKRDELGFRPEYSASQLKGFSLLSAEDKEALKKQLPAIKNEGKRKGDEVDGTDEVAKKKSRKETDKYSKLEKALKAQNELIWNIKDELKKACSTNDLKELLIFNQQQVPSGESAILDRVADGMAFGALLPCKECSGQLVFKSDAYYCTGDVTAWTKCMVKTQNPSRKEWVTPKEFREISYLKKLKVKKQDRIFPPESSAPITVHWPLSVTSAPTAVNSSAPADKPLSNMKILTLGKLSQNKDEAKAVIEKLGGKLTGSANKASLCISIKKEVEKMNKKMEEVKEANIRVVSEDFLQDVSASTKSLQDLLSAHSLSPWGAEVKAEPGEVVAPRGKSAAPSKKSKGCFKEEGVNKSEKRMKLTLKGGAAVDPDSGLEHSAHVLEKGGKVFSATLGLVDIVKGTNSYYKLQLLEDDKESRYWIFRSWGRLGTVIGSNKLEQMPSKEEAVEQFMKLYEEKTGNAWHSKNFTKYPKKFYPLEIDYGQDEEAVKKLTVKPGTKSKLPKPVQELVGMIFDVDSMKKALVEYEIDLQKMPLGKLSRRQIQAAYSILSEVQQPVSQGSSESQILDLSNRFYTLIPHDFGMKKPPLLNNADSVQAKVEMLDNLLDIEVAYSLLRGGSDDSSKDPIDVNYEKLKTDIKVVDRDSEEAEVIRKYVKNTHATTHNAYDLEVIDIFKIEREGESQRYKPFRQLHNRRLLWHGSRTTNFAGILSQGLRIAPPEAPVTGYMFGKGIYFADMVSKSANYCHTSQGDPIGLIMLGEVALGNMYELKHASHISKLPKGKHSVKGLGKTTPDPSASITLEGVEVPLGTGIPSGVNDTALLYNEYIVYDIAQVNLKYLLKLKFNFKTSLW
Source text: In principle, the PARP assay used relies upon activating endogenous PARP (as hereinafter described) in cells containing exogenous [^32 P]-NAD^+ introduced therein by suspending the cells in a solution of [^32 P]-NAD^+ to which they have been rendered permeable in an initial pretreatment step. The poly(ADP-ribose) which is then synthesised by the enzyme can be precipitated by trichloracetic acid (TCA) and the amount of radio-labelled ^32 p incorporated therein measured, e.g. using a scintillation counter, to give a measure of the activity of the PARP under the particular conditions of the experiment. By repeating the experiment following the same procedure, and under the same conditions, in the presence of each compound to be tested the reduction in enzyme activity, representative of the inhibitory effect of the test compound, can then be ascertained from the reduction, if any, of the amount of [^32 P] measured in the TCA precipitated poly(ADP-ribose).
Thus, with a range of different compounds a set of comparative values for inhibitory activity can be obtained.
In practice, L1210 murine leukaemia cells were used as the source of the PARP enzyme after being rendered permeable to exogenous [^32 P]NAD by exposure to hypotonic buffer and cold shock. […] This oligonucleotide sequence snaps back on itself to form a double-stranded molecule with a single blunt end and provides an effective substrate for activation of PARP.
The experimental protocol adopted, in which a synthetic oligonucleotide as mentioned above is introduced as a specific activator of PARP, discriminates between PARP and other mono-ADP-ribosyltransferases in the cells.
The oligonucleotide having the palindromic sequence […], synthesised by conventional means, was vacuum dried and stored as pellets in a freezer. Before use, it was made up to 200 μg/ml in 10 mM Tris/HCl, pH 7.8, with each pellet being dissolved completely in […] of buffer. The solution was then heated to 60° C. in a water bath for 15 minutes, and allowed to cool slowly to ensure correct reannealing. After adding 9.5 ml of buffer, the concentration was checked by measuring the optical density of a diluted sample at 260 nm. The main solution was then diluted to a concentration of 200 μg/ml and stored in 500 μl aliquots in a freezer, ready for use.
The L1210 cells used as the source of the PARP enzyme were maintained as a suspension culture in RPMI medium+10% foetal bovine serum+glutamine and antibiotics (penicillin and streptomycin). HEPES and sodium bicarbonate were also added, and the cells were seeded in 100 ml of medium such that there would be a concentration of approximately 8×10^5 /ml at the time of carrying out an assay.
(§1) The solubility of the compound was then checked by adding a quantity of the DMSO solution to a quantity of the isotonic buffer, in the required final proportions that were to be used in carrying out the assay, and after an interval the solution was examined under a microscope for any signs of crystals forming.
A desired quantity of the cells, ascertained by counting with a haemocytometer, was then centrifuged (1500 rpm in a "Europa" model 24M centrifuge for 5 minutes), the supernatant removed, and the pellets obtained were resuspended in 20 ml Dul A at 4° C. before centrifuging again at 1500 rpm and 4° C. After again removing the supernatant, the cells were resuspended at a concentration of 3×10^7 cells/ml in ice cold hypotonic buffer and left for 30 minutes on ice. Nine volumes were then added of ice cold isotonic buffer, and the cells, now rendered permeable to exogenous NAD^+, were then used within the next hour for carrying out an assay.

L1210 cells [1] = assay: growth inhibition assay, alone or with temozolomide; assay type: cell-based, murine; conditions: Mus musculus, L1210, 48 h
Description: (§2) Again using cultures of the murine leukaemia L1210 cell line, growth inhibition experiments were carried out to assess the cytostatic effects of the compounds and clonogenic survival assays were performed to assess cytotoxicity, especially in relation to use of the compounds in conjunction with DNA damaging cytotoxic agents such as cytotoxic antitumour drugs or high energy radiation.
At this time one set of replicates would be counted using a Coulter counter (N0), and 48 hours later the remaining samples would be counted (N1). The percentage (%) growth inhibition of drug-treated samples could then be estimated. In drug combination experiments, where evidence of synergistic effects on cell growth or clonogenicity was being sought, a single, fixed concentration of a cytotoxic drug sample, e.g. temozolomide, would be taken as the control value.

L1210 cells [2] = assay: clonogenic survival assay with temozolomide (TM); conditions: for DEF10 (TM): 16 hours, ± S.E.
Description: as §2
After 7-10 days colonies were stained with 0.5 mg/ml MTT and counted by eye on a gridded light box. Survival curves were plotted and typical DEF10 values obtained are hereinafter given in Table II (DEF10 being defined as the ratio of the concentration of TM that reduces survival to 10% divided by the concentration of TM that reduces survival to 10% in the presence of a fixed concentration of PARP inhibitor). Each DEF10 value in Table II represents the average ratio±S.E. (standard error) derived from the averaged 10% survival for TM alone (675±31 μM from 22 independent survival curves) divided by individual 10% survival values from at least 3 independent survival curves performed in the presence of a fixed concentration of inhibitor.
For NU1025 maximal potentiation of cytotoxicity was obtained by a concentration in the range of 50-100 μM, and was significant at doses as low as 10 μM.

L1210 cells [3] = assay: repair of potentially lethal damage (PLD) after gamma ray irradiation; assay type: cell-based, murine; conditions: 8 Gray gamma ray; 10 mM 3AB or 200 μM NU1025
Description: Repair of potentially lethal damage (PLD) occurs when cells are held in stationary-phase following initiation of PLD prior to allowing cell division to take place. In further typical experiments, L1210 cells were allowed to repair gamma ray PLD in the presence or absence of 3AB or NU1025 as follows. L1210 cells were maintained in culture until they had attained stationary phase (>10^6 cells/ml). They were diluted to […] in conditioned medium from stationary-phase cultures to prevent further cell division. Replicate 2 ml samples of cells in plastic bijoux were held on ice prior to and immediately following 8 Gray gamma ray irradiation. 1 ml of 3x final concentration of compounds 3AB or NU1025 made up in conditioned medium from stationary cultures was added (to give final concentrations of 10^6 cells/ml in 1% DMSO ±10 mM 3AB or 200 μM NU1025) and the cells were incubated at 37° C. for 0, 2 or 4 hours prior to resuspending in drug-free medium and seeding for colony formation. Unirradiated stationary phase cultures incubated at 37° C. for 0, 2 or 4 hours with 1% DMSO ±10 mM 3AB or 200 μM NU1025 were used as appropriate controls for determining relative cell survival. In the absence of PARP inhibitor cell survival increased with time allowed for PLD repair to take place. […]

in vitro = conditions: mouse, l1210 cells
Description: as §2

[4] = tested on: DNA strand breaks in L1210 cells; assay: DNA strand break assay (alkaline elution); assay type: cell-based, murine; conditions: for concentration above which strand breakage with TM increases significantly: 150 μM TM, 1 hour; for effect on DNA strand break levels, compound alone: 24 hour incubation
Description: as §2
All the compounds were tested for their ability to produce strand breaks when used alone.

[5] = solubility check of test compound in assay buffer (DMSO solution added to isotonic buffer, microscope); assay type: physicochemical
Source text: as §1, with “The compounds being tested were generally made up as a concentrated solution in DMSO (Dimethyl sulphoxide). The” for “The”

L1210 cells [6] = assay: clonogenic survival assay, gamma ray irradiation; assay type: cell-based, murine; conditions: 200 μM
Description: In other clonogenic survival assays gamma ray irradiation was used to damage the cells. Typically, L1210 cells (3 ml, 4×10^3 /ml in plastic bijoux bottles) were irradiated at 4° C. with varying doses of gamma rays in the presence or absence of 10 mM 3AB or 200 μM NU1057 and a final concentration of 2% DMSO. The cells were then incubated at 37° C. for 2 hours in the continued presence or absence of PARP inhibitor prior to seeding for colony formation.

[7] = half life of temozolomide in culture; assay type: physicochemical
[8] = 10 μM, read-out: % Inhibition (PARP)
[9] = 30 μM, read-out: % Inhibition (PARP)
[10] = read-out: IC50 INHIBITOR + 100 μM TM (growth inhibition)
[11] = read-out: IC50 INHIBITOR ALONE (growth inhibition)

NC(=O)c1cccc(N)c1 [3-aminobenzamide]
inhibition at 10 µM (PARP; [8]): 36%
inhibition at 30 µM (PARP; [9]): 63%
inhibition at 100 µM (PARP; 100 μM, read-out: % Inhibition (PARP)): 79%
IC50 (L1210 cells [1]; [10]): 2500 ± 100 µM
IC50 (L1210 cells [1]; [11]): 6700 ± 200 µM
DEF10 (TM) (L1210 cells [2]; 1 mM inhibitor): 2.4 ± 0.3
DEF10 (TM) (L1210 cells [2]; 5 mM inhibitor): 4.1 ± 0.4
DEF10 (TM) (L1210 cells [2]; 5 mM inhibitor, listed as 3AB): about 4
effect on PLD repair in words (L1210 cells [3]): blocked this repair
CC50 at 24 h (in vitro): 14000 ± 1000 µM
concentration above which strand breakage with TM increases significantly [4]: > 5 mM
effect on DNA strand break levels, compound alone ([4]; 20 mM): no significant effect on DNA strand break levels

NC(=O)c1ccccc1 [BENZAMIDE, benzamide]
IC50 (L1210 cells [1]; [10]): 840 ± 120 µM
IC50 (L1210 cells [1]; [11]): 2500 ± 300 µM
DEF10 (TM) (L1210 cells [2]; 1 mM inhibitor): 4.0 ± 0.7
DEF10 (TM) (L1210 cells [2]; 3 mM inhibitor): 6.9 ± 0.2
CC50 at 24 h (in vitro): 6000 ± 1500 µM
concentration above which strand breakage with TM increases significantly [4]: above 3 mM
effect on DNA strand break levels, compound alone ([4]; 20 mM): no significant effect on DNA strand break levels

NC(=O)c1cccc(OCc2ccc(Br)cc2)c1 [NU1014, 3-(4-Bromobenzyloxy)benzamide]
inhibition at 10 µM (PARP; [8]): 23%
inhibition at 30 µM (PARP; [9]): 36%
insolubility at assay concentration ([5]; 100 μM): insol.

NC(=O)c1cccc(OCc2ccc(F)cc2)c1 [NU1015, 3-(4-Fluorobenzyloxy)benzamide]
inhibition at 10 µM (PARP; read-out: % Inhibition (PARP), 10 μM): 20%
inhibition at 30 µM (PARP; read-out: % Inhibition (PARP), 30 μM): 52%
insolubility at assay concentration ([5]; 100 μM): insol.

NC(=O)c1cccc(OCc2cccc([N+](=O)[O-])c2)c1 [NU1017, 3-(3-Nitrobenzyloxy)benzamide]
inhibition at 10 µM (PARP; [8]): 21%
inhibition at 30 µM (PARP; [9]): 40%
insolubility at assay concentration ([5]; 100 μM): insol.

Cc1nc2c(O)cccc2c(=O)[nH]1 [NU1025, 8-Hydroxy-2-methylquinazolin-4-[3H]-one]
IC50 (L1210 cells [1]; [10]): 40 µM
IC50 (L1210 cells [1]; [11]): 410 µM
DEF10 (TM) (L1210 cells [2]; 10 μM inhibitor): 2.0 ± 0.2
DEF10 (TM) (L1210 cells [2]; 100 μM inhibitor): 5.1 ± 0.7
effect on PLD repair in words (L1210 cells [3]): blocked this repair
CC50 at 24 h (in vitro): 1600 ± 100 µM
effect on DNA strand break levels, compound alone ([4]; 1 mM): no significant effect on DNA strand break levels

NC(=O)c1cccc(OCCCCCCCCn2cnc3c(Cl)ncnc32)c1 [NU1027, 3-[8-(6-chloropurin-9-yl)octyloxy]benzamide]
inhibition at 10 µM (PARP; [8]): 30%
insolubility at assay concentration ([5]; 30 μM): insol.
insolubility at assay concentration ([5]; 100 μM): insol.

N#Cc1ccc(COc2cccc(C(N)=O)c2)cc1 [NU1037, 3-(4-cyanobenzyloxy)benzamide]
inhibition at 10 µM (PARP; [8]): 33%
insolubility at assay concentration ([5]; 30 μM): insol.
insolubility at assay concentration ([5]; 100 μM): insol.

CCCCCCOc1cccc(C(N)=O)c1 [NU1043, 3-hexyloxybenzamide]
inhibition at 10 µM (PARP; [8]): 15%
inhibition at 30 µM (PARP; [9]): 39%
insolubility at assay concentration ([5]; 100 μM): insol.

CCCCCCCOc1cccc(C(N)=O)c1 [NU1044, 3-heptyloxybenzamide]
inhibition at 10 µM (PARP; [8]): 26%
insolubility at assay concentration ([5]; 30 μM): insol.
insolubility at assay concentration ([5]; 100 μM): insol.

NC(=O)c1cccc(OC/C=C/c2ccccc2)c1 [NU1050, 3-(Cinnamyloxy)benzamide]
inhibition at 10 µM (PARP; [8]): 23%
insolubility at assay concentration ([5]; 30 μM): insol.
insolubility at assay concentration ([5]; 100 μM): insol.

O=c1[nH]c(-c2ccc([N+](=O)[O-])cc2)nc2c(O)cccc12 [NU1057, 8-Hydroxy-2-(4-nitrophenyl)quinazolin-4-one]
IC50 (PARP): 0.23 µM
PARP inhibitory activity in words (PARP): potent PARP inhibitors
inhibition at 10 µM (PARP; [8]): 92%
potentiation of gamma ray cytotoxicity in words (L1210 cells [6]): significant potentiation of gamma ray cytotoxicity
DEF10 (gamma ray cytotoxicity) (L1210 cells [6]; 2% DMSO, 2 hours at 37° C.): 1.1

Cn1nnc2c(C(N)=O)ncn2c1=O [TM, temozolomide]
IC50 (L1210 cells [1]; read-out: IC50 of TM alone (inhibition of cell growth)): 361 ± 25 µM
IC50 (L1210 cells [2]; Mus musculus, L1210, 16 h, read-out: LD50 of TM alone): 251 ± 13 µM
IC90 (L1210 cells [2]; Mus musculus, L1210, 16 h, read-out: concentration of TM alone that reduces survival to 10%): 675 ± 31 µM
cytotoxicity at 150 µM (L1210 cells [2]; Mus musculus, L1210, read-out: reduction of survival): ~30%
minimal effective concentration ([4]; Mus musculus, L1210, 1 h, read-out: lowest TM level with detectable changes in DNA strand break levels): 150 µM
rate of elution (DNA strand breakage) in words ([4]; TM, 1 hour treatment): concentration-dependent increase in the rate of elution
half-life [7]: ~40 min
